Here are results for 65 molecules from PubChem BioAssay AID977605 (Broad Institute, 2014).

Calls of active or inactive are those of the source.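 The calls were made as follows: active = fitted curve reaches 40% activation below the top valid tested dose, in every test run; inconclusive = test runs disagree on the call; inactive = the rest, including effects opposite to the expected direction.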

A short description of the first assay: E-selectin inducers in HUVECs, dose response, imaging, HUVEC, cherry-picked samples (AID 977605).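 Also: signal is the share of imaged cells scored positive for E-selectin.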 The note with it: HUVEC E-selectin immunostaining, at 16 µM (top of the series), percent of TNF-alpha response over vehicle.
Consider `C[C@H](CO)N1C[C@H](C)[C@@H](CN(C)S(=O)(=O)c2cn(C)cn2)Oc2ccc(NC(=O)CCCCCC(=O)Nc3ccccc3N)cc2C1=O`, for which the activation is -0.01% (inactive).

The assay is the same for the next values; noted with them: HUVEC E-selectin immunostaining, at 18 µM (top of the series), percent of TNF-alpha response over vehicle.
In the case of `CCC(=O)N1CC[C@@H]2[C@H](CO)Nc3ccc(C#Cc4ccc(F)cc4)cc3[C@@H]21`, the activation was 27.2% (inactive).

The same assay, now with this note: HUVEC E-selectin immunostaining, at 19.5 µM (top of the series), percent of TNF-alpha response over vehicle.
On to `COc1ccc(NC(=O)Nc2cccc3c2O[C@@H](CN(C)C(=O)NC2CCCCC2)[C@H](C)CN([C@H](C)CO)C3=O)cc1`, for which the activation is 0.507% (inactive).

`CCOC(=O)C1CCCN(C(=O)c2cc(S(=O)(=O)N(C)C)ccc2N2CCCC2)C1` (stereo not given): the activation was 0.51% (inactive).

Regarding `C[C@@H]1CN([C@@H](C)CO)C(=O)c2cc(NC(=O)Cn3cnnn3)ccc2O[C@H]1CN(C)Cc1ccc(Oc2ccccc2)cc1`, the activation was 6.68% (inactive).

As to `C[C@H]1CN([C@@H](C)CO)C(=O)Cc2cc(NS(=O)(=O)c3ccccc3)ccc2O[C@H]1CN(C)Cc1ccc(C(F)(F)F)cc1`, the activation was 10.6% (inactive).

For the molecule `C[C@H]1CN([C@@H](C)CO)C(=O)c2cc(NC(=O)CCCN(C)C)ccc2O[C@H]1CN(C)Cc1ccc(C(F)(F)F)cc1`, the activation is -0.127% (inactive).

Take `C[C@H](CO)N1C[C@H](C)[C@H](CN(C)C)Oc2ccc(NC(=O)Cc3cn(C)c4ccccc34)cc2C1=O`: the activation is 8.16% (inactive).

For `C[C@H]1CN([C@@H](C)CO)C(=O)Cc2cc(NC(=O)c3ccncc3)ccc2O[C@H]1CN(C)C(=O)Nc1ccc(C(F)(F)F)cc1`, the activation was 0.212% (inactive).

With `CC(C)NC(=O)Nc1ccc2c(c1)CC(=O)N([C@H](C)CO)C[C@H](C)[C@@H](CN(C)Cc1ccc(Oc3ccccc3)cc1)O2`, the activation is -0.055% (inactive).

With `CC(=O)c1ccc(N(C(=O)CNC(=O)c2ccco2)C(C(=O)NC2CCCC2)c2ccc(C)o2)cc1` (stereo not given), the activation was -0.024% (inactive).

Consider `COCC(=O)N(C)C[C@@H]1Oc2cc(-c3ccc(F)cc3)ccc2S(=O)(=O)N([C@H](C)CO)C[C@H]1C`, for which the activation is -0.159% (inactive).

For the molecule `COc1ccc(CN(C)C[C@H]2Oc3ccc(NC(=O)Cn4cnnn4)cc3CC(=O)N([C@@H](C)CO)C[C@@H]2C)cc1`, the activation is -0.061% (inactive).

For `COc1ccccc1N1CCN(C(=O)c2ccco2)CC1`, the activation is 1.75% (inactive).

As to `COc1ccc(-c2nnc3n2CCCCC3)cc1`, the activation is 0.032% (inactive).

On to `Cc1ccc(NCc2n[nH]c(=S)n2-c2ccccc2)cc1`, for which the activation is 1.12% (inactive).

`C[C@H]1CN([C@@H](C)CO)C(=O)Cc2cc(NC(=O)C3CCCCC3)ccc2O[C@H]1CN(C)C(=O)NC1CCCCC1`: the activation was -0.185% (inactive).

Take `Cc1cccc(NS(=O)(=O)c2ccc(S(=O)(=O)N3CCCC3)cc2)c1`: the activation is 1.83% (inactive).

Regarding `C[C@@H]1CN([C@@H](C)CO)C(=O)Cc2cc(NS(=O)(=O)c3cccs3)ccc2O[C@H]1CN(C)C(=O)Nc1ccc(F)cc1`, the activation is -0.169% (inactive).

In the case of `COc1ccc(NC(=O)N(C)C[C@H]2Oc3ccc(NC(=O)c4ccncc4)cc3CC(=O)N([C@H](C)CO)C[C@H]2C)cc1`, the activation was -0.01% (inactive).

In the case of `CCCCNC(=O)N1CCN(c2ccccc2OCC)CC1`, the activation is 0.12% (inactive).

On to `C[C@H](CO)N1C[C@H](C)[C@@H](CN(C)S(=O)(=O)c2ccc(Cl)cc2)Oc2ccc(NS(=O)(=O)c3ccc(F)cc3)cc2CC1=O`, for which the activation was -0.113% (inactive).

On to `COc1ccc(N2C(=O)c3ccccc3C(C)(C)C2=O)cc1`, for which the activation was -0.152% (inactive).

Regarding `C[C@@H]1CN([C@H](C)CO)C(=O)c2cc(C3=CCCC3)cnc2O[C@H]1CN(C)C(=O)Nc1ccccc1`, the activation was -0.157% (inactive).

Consider `CNC[C@H]1Oc2ccc(N(C)C)cc2C(=O)N([C@@H](C)CO)C[C@H]1C`, for which the activation was 0.27% (inactive).

`C[C@H]1CN([C@@H](C)CO)C(=O)Cc2cc(NC(=O)Cc3cn(C)c4ccccc34)ccc2O[C@H]1CN(C)Cc1ccc(C(F)(F)F)cc1`: the activation was 16.2% (inactive).

Regarding `CCCCCCOc1ccc(C(CC(N)=O)C(=O)O)cc1` (stereo not given), the activation is -0.269% (inactive).

In the case of `CCOc1ccc(C(=O)N2CCN(S(=O)(=O)c3cccs3)CC2)c(OCC)c1`, the activation is -0.235% (inactive).

As for `COc1ccc(CN2CCN(C(=O)c3ccccc3C(=O)c3ccccc3)CC2)cc1OC`, the activation is 0.003% (inactive).

In the case of `COc1cccc(-c2cccc(-c3nc(C(=O)Nc4ccc(-c5ccccc5)cc4)cc4c3[C@@H](CCO)N(S(=O)C(C)(C)C)C4)c2)c1` (stereo not given in full), the activation is 1.45% (inactive).

In the case of `C[C@H](CO)N1C[C@H](C)[C@H](CN(C)CC2CC2)Oc2c(NC(=O)C3CC3)cccc2C1=O`, the activation is -0.037% (inactive).

Take `C[C@@H]1CN([C@@H](C)CO)C(=O)Cc2cc(NC(=O)Cn3cnnn3)ccc2O[C@H]1CN(C)C(=O)Nc1ccc(C(F)(F)F)cc1`: the activation is -0.025% (inactive).

Consider `O=C(O)Cn1cc(C(=O)C(F)(F)F)c2ccccc21`, for which the activation was 0.43% (inactive).

On to `CCCCOCC1CN(CCCC)S(=O)(=O)c2c(Oc3ccc(C(C)C)cc3)cccc2O1` (stereo not given), for which the activation is -0.279% (inactive).

Regarding `CN(CC(=O)Nc1ccc(Br)cc1)Cc1ccccc1`, the activation is 0.013% (inactive).

With `COC(=O)c1ccc(CNC(=O)c2ccc(OC)c(S(=O)(=O)NC3CCCC3)c2)cc1`, the activation is -0.105% (inactive).

For the molecule `C[C@H]1CN([C@@H](C)CO)C(=O)c2cc(N(C)C)ccc2O[C@H]1CN(C)S(=O)(=O)c1cn(C)cn1`, the activation was 0.81% (inactive).

Turning to `O=C(CN(CC1CCCO1)C(=O)CNS(=O)(=O)c1ccccc1)NCc1ccc(F)cc1` (stereo not given), the activation is 1.46% (inactive).

Regarding `CCCNC(=O)N(C)C[C@H]1Oc2ncc(C3=CCCC3)cc2C(=O)N([C@H](C)CO)C[C@@H]1C`, the activation is -0.163% (inactive).

In the case of `COc1ccc(C(=O)N2CC(c3ccccc3)CC2=O)cc1` (stereo not given), the activation is -0.124% (inactive).

Turning to `COc1ccc(S(=O)(=O)N(C)C[C@H]2Oc3c(NC(=O)Nc4c(C)noc4C)cccc3C(=O)N([C@@H](C)CO)C[C@H]2C)cc1`, the activation was -0.174% (inactive).

Take `CCn1c(CNc2ccc(Cl)cc2)nnc1SCC#N`: the activation was -0.124% (inactive).

Turning to `COc1ccc(S(=O)(=O)Nc2ccc3c(c2)C(=O)N([C@@H](C)CO)C[C@@H](C)[C@@H](CN(C)Cc2ccc(C(=O)Nc4ccccc4N)cc2)O3)cc1`, the activation was 1.66% (inactive).

As for `CCC(=O)N(C)C[C@H]1Oc2cc(C3=CCCC3)ccc2S(=O)(=O)N([C@@H](C)CO)C[C@@H]1C`, the activation was -0.074% (inactive).

Consider `CNC[C@H]1Oc2ccc(NS(=O)(=O)c3ccc(OC)cc3)cc2CC(=O)N([C@@H](C)CO)C[C@@H]1C`, for which the activation was -0.213% (inactive).

Turning to `CCC(=O)N(C)C[C@H]1Oc2ncc(Br)cc2C(=O)N([C@@H](C)CO)C[C@@H]1C`, the activation was 0.243% (inactive).

In the case of `C[C@H]1CN([C@@H](C)CO)C(=O)Cc2cc(NC(=O)c3ccncc3)ccc2O[C@H]1CN(C)Cc1ccc(C(=O)Nc2ccccc2N)cc1`, the activation was 6.93% (inactive).

Turning to `C[C@@H]1CN([C@@H](C)CO)C(=O)Cc2cc(NC(=O)c3ccncc3)ccc2O[C@@H]1CN(C)S(=O)(=O)c1cn(C)cn1`, the activation was -0.153% (inactive).

Take `C[C@@H]1CN([C@@H](C)CO)C(=O)c2cc(NC(=O)Nc3ccccc3)ccc2O[C@@H]1CN(C)C(=O)Nc1ccc(C(F)(F)F)cc1`: the activation was 0.807% (inactive).

For the molecule `CC(C)CCNC(=O)c1cn(C)c2ccc(S(=O)(=O)N3CCCC3)cc2c1=O`, the activation is -0.129% (inactive).

Take `COc1ccc(OC)c(NC(=O)c2ccc(CSc3ncccn3)cc2)c1`: the activation was 0.128% (inactive).

Regarding `C[C@@H]1CN([C@H](C)CO)C(=O)Cc2cc(NC(=O)Nc3ccc4c(c3)OCO4)ccc2O[C@H]1CN(C)Cc1ccc(Cl)c(Cl)c1`, the activation was 0.291% (inactive).

Consider `Cc1cc(C)c2sc(NNC(=O)C3COc4ccccc4O3)nc2c1` (stereo not given), for which the activation is 0.141% (inactive).

Regarding `CC(C)NC(=O)N(C)C[C@@H]1Oc2ccc(NC(=O)Cc3cn(C)c4ccccc34)cc2C(=O)N([C@H](C)CO)C[C@H]1C`, the activation was 0.047% (inactive).

With `COc1ccc(CN(C)C[C@H]2Oc3c(NC(=O)c4cnccn4)cccc3C(=O)N([C@H](C)CO)C[C@@H]2C)cc1`, the activation was 0.248% (inactive).

On to `C[C@@H]1CN([C@@H](C)CO)C(=O)c2cccc(NC(=O)Nc3ccc4c(c3)OCO4)c2O[C@H]1CN(C)S(=O)(=O)c1ccc(F)cc1`, for which the activation is -0.076% (inactive).

For `CCc1ccc(C(C(=O)NC2CCCCC2)N(C(=O)c2csnn2)C2CC2)cc1` (stereo not given), the activation was -0.021% (inactive).

For the molecule `CCc1nc(=O)c(-c2ccccc2)c(C)n1-c1ccccc1`, the activation was -0.02% (inactive).

As for `O=S(=O)(Nc1cccc(S(=O)(=O)N2CCCC2)c1)c1cccs1`, the activation was 2.79% (inactive).

For the molecule `CC(=O)c1ccc(N2CCN(c3ccnc4cc(Cl)ccc34)CC2)cc1`, the activation was 1.69% (inactive).

Staying with this assay, now noted: HUVEC E-selectin immunostaining, at 21 µM (top of the series), percent of TNF-alpha response over vehicle.
As to `C[C@@H]1CN([C@H](C)CO)C(=O)c2cccc(NC(=O)C3CCOCC3)c2O[C@H]1CN(C)C(=O)Nc1ccccc1`, the activation is -0.271% (inactive).

Turning to `COc1ccc(S(=O)(=O)Nc2cccc3c2O[C@H](CN(C)C(=O)Nc2c(C)noc2C)[C@@H](C)CN([C@H](C)CO)C3=O)cc1`, the activation was -0.117% (inactive).

Take `C[C@@H]1CN([C@H](C)CO)C(=O)c2cc(NC(=O)c3ccncc3)ccc2O[C@@H]1CN(C)C(=O)Nc1ccc2c(c1)OCO2`: the activation was 0.64% (inactive).

With `C[C@H](CO)N1C[C@H](C)[C@@H](CN(C)C(=O)NC2CCCCC2)Oc2ccc(NC(=O)Nc3ccc(C(F)(F)F)cc3)cc2C1=O`, the activation is -0.177% (inactive).

`C[C@H]1CN([C@@H](C)CO)C(=O)Cc2cc(NS(C)(=O)=O)ccc2O[C@@H]1CN(C)Cc1ccncc1`: the activation is 0.217% (inactive).
